Source: ChEMBL document CHEMBL1201862, “PubChem BioAssay data set” (2004)
The source made the active and inactive calls.

Key:
[1] = target: Serine hydrolase RBBP9 (Homo sapiens, UniProt O75884); experiment: human RBBP9 inhibitor potency, late-stage follow-up, biochemical, gel-based ABPP, IC50, panel member Panel member description: RBBP9 IC50 Gel-based ABPP Assay (AID 2254)
[2] = test system: HEK293; experiment: TNF Induced NF-kB Luciferase in 293-NF-kB-Luc Stable Cells. [Related pubchem assays: 1266, 1299, 1269, 1373, 1292, 1290, 1302, 1371, 1283, 1270, 1295, 1271, 1375, 1294, 1374, 1281, 1293, 1291, 1289, 1280, 465, 1368, 1364, 1282, 1372, 1365, 1369, 1370, 1367, 1366 ]; type: functional, cell-based; details: Homo sapiens
[3] = test system: HEK293; experiment: PMA/Ionomycin induced NF-kB luciferase assay in 293- NF-kB-Luc stable cells. [Related pubchem assays: 1299, 1270, 1295, 1375, 1287, 1281, 1293, 1291, 1289, 1280, 465, 1364, 1282, 1372, 1365, 1370, 1367, 1366, 1269, 1373, 1292, 1290, 1302, 1371, 1283, 1271, 1294, 1374, 1368, 1369 ]; type: functional, cell-based; details: Homo sapiens
[4] = target: Luciferin 4-monooxygenase (Photinus pyralis, UniProt P08659); experiment: In vitro luciferase assay using purified luciferase. [Related pubchem assays: 1299, 1270, 1295, 1375, 1287, 1281, 1293, 1291, 1289, 1280, 465, 1364, 1282, 1372, 1365, 1370, 1367, 1366, 1266, 1373, 1292, 1290, 1302, 1371, 1283, 1271, 1294, 1374, 1368, 1369 ]
[5] = test system: HEK293; experiment: Cytotoxicity assay in HEK293 cells. [Related pubchem assays (depositor defined):AID1266, AID1269, AID1270, AID1271, AID1280, AID1281, AID1282, AID1283, AID1287, AID1289, AID1290, AID1291, AID1292, AID1293, AID1294, AID1295, AID1299, AID1302, AID1364, AID1365, AID1366, AID1367, AID1369, AID1370, AID1371, AID1372, AID1373, AID1374, AID1375, AID1384 …; type: functional, cell-based; details: Homo sapiens
[6] = test system: INS1; experiment: beta cell apoptosis inhibitors, cytokine rescue, dose response, luminescence, retest (AID 449756); type: functional, cell-based; details: Rattus norvegicus;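 also: cell death triggered by IL-1 beta plus TNF-alpha plus IFN-gamma mixture; protective hits raise ATP signal compared with cytokine alone wells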
[7] = test system: BJ; experiment: cytotoxicity toward BJ-TERT fibroblasts, dose response, cell-based, RAS-independent, luminescence (AID 1933); type: functional; details: Homo sapiens
[8] = target: T1, Kappa-type opioid receptor (Homo sapiens, UniProt P41145); type: functional
[9] = target: Ephrin type-A receptor 4 (Mus musculus, UniProt Q03137); experiment: inhibitors of EphA4 binding to KYL peptide, primary screen, biochemical, colorimetric, mouse EphA4 (AID 689); type: functional
[10] = test system: Streptococcus sp. 'group A'; experiment: growth inhibition of control SK(-) GAS strain, dose response, counter-screen for streptokinase expression inhibitor project, luminescence, kanamycin, BacTiterGlo, confirmation (AID 1900); type: functional, organism-based
[11] = target: Exodeoxyribonuclease V (Escherichia coli (strain K12), UniProt P04993+P07648+P08394); experiment: E. coli RecBCD inhibitors, dose response, counter-screen for AddAB inhibitor project, absorbance, V66 E. coli, mutant T4 phage (AID 492957); type: functional, cell-based, Escherichia coli str. K-12 substr. MG1655
[12] = test system: BJ; experiment: cells; type: functional, cell-based; details: Homo sapiens
[13] = Counterscreen for AddAB inhibitors: absorbance-based bacterial cell-based high throughput dose response assay for inhibitors of bacterial viability. [Related pubchem assays (depositor defined):AID435030, AID449728, AID449731, AID488942, AID488955, AID488956]; type: functional
[14] = target: T2, Streptokinase A (Streptococcus pyogenes serotype M1, UniProt P10520); experiment: S. pyogenes streptokinase expression inhibitors, potency, dose response, plasminogen activation absorbance, OD405 (AID 1914); type: functional, Streptococcus pyogenes M1 GAS;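 also: secreted streptokinase activity via plasminogen activation per viability signal from cell pellet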
T2 sequence (P10520 whole entry): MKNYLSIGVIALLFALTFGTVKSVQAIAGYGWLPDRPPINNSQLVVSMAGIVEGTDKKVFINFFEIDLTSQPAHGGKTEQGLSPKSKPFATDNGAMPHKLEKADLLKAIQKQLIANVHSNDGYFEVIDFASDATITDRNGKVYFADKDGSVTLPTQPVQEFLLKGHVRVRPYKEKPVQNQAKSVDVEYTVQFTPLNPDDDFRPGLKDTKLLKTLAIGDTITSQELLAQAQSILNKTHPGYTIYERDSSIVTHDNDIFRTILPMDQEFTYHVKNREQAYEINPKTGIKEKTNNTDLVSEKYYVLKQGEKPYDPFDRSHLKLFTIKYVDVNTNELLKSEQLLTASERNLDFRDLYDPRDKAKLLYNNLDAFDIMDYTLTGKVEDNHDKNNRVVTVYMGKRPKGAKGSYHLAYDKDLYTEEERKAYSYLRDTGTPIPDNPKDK

[15] = cytotoxicity toward DRD oncogenic fibroblasts, dose response, cell-based, non-viral oncogenic, luminescence (AID 1934); type: functional; details: Homo sapiens
[16] = target: Beta-galactosidase (Escherichia coli, UniProt Q8VNN2); type: functional
[17] = test system: Streptococcus; experiment: Group A Streptococcus viability loss, dose response, counter-screen for streptokinase expression inhibitor project, luminescence, BacTiterGlo (AID 1915); type: functional, organism-based;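 also: potency for reduction of bacterial viability or growth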
[18] = Luminescence Cell-Based Dose Response HTS to Identify Inhibitors of 5'UTR Stem-Loop Driven Prion Protein mRNA Translation in H4 Neuroglioblastoma Cells. [Related pubchem assays: 1827 (Project Summary), 1813 (Primary HTS)]; type: functional
[19] = target: T3, Heat shock factor protein 1 (Mus musculus, UniProt P38532); experiment: HSF1 potentiators in luciferase reporter cells, confirmation, cell-based, NIH3T3, luminescence, dose retest (AID 435004); type: functional;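 also: stress induced by proteasome inhibitor MG132 added 30 min after compound; luciferase reporter driven by HSF1 response element in NIH3T3 cells; actives raise luminescence as potentiators of the MG132 stress response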
T3 sequence (P38532 whole entry): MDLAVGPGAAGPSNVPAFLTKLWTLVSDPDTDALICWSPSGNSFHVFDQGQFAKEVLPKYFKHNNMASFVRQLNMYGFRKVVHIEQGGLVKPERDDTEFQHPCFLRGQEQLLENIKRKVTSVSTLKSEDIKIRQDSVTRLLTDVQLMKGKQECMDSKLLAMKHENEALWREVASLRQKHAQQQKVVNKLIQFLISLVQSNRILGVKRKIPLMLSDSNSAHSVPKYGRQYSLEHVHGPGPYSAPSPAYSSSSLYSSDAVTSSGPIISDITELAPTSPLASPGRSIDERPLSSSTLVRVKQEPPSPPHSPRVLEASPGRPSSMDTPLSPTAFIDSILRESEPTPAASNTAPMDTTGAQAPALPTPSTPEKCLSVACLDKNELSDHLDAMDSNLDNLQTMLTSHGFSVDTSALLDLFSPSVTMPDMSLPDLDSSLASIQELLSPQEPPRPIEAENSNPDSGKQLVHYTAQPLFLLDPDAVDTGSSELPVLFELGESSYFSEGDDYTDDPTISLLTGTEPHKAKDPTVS

[20] = test system: BJ; experiment: cytotoxicity toward Ras-transformed BJeLR fibroblasts, dose response, cell-based, alamar blue fluorescence, cherrypicked samples (AID 2631); type: functional; details: Homo sapiens;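 also: confirmatory dose-response assay in RAS-dependent BJ fibroblasts engineered with TERT, LT and ST, with cytotoxicity read by fluorescence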
[21] = cells; type: functional, cell-based
[22] = target: T1, Kappa-type opioid receptor; type: functional; remark: listed apart in the source
[23] = inhibitors of SNCA 5'UTR-driven reporter translation, confirmation, H4 neuroglioma cells, luminescence (AID 1988); type: functional, cell-based
[24] = cells; type: functional, cell-based; remark: listed apart in the source
[25] = test system: BJ; experiment: cytotoxicity toward BJ-TERT-LT-ST fibroblasts, dose response, cell-based, RAS-independent, luminescence (AID 1935); type: functional; details: Homo sapiens;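 also: BJ fibroblasts immortalized with TERT plus LT and ST oncogenes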
[26] = growth suppression of PTEN-null colon cells, dose response, cell-based, HCT116 PTEN knockout (AID 1047); type: functional;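 also: HCT116 colon tumor cells with PTEN knocked out; cells exposed to compound for 60 hours before readout; potency for loss of cell viability measured by luminescence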
[27] = target: X-box-binding protein 1 (Homo sapiens, UniProt P17861); type: functional, Cricetulus griseus;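 also: confirmatory dose-response counter-screen serving a CHOP assay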
[28] = growth suppression of beta-catenin-knockout colon cells, dose response, cell-based, HCT116, human colon tumor (AID 1045); type: functional;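 also: HCT116 colon tumor cells with beta catenin knocked out; cells exposed to compound for 60 hours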
[29] = target: T4, CAAX prenyl protease 2 (Saccharomyces cerevisiae S288c, UniProt Q03530); type: biochemical
T4 sequence (Q03530 whole entry): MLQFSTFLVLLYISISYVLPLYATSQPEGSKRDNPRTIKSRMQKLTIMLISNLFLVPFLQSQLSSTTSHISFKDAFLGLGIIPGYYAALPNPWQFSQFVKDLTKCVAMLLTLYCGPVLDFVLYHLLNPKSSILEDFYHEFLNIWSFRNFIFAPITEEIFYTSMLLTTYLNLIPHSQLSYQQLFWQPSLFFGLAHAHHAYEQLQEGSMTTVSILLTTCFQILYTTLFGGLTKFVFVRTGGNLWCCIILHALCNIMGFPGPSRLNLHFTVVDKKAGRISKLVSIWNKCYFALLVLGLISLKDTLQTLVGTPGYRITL

[30] = target: Trypsin (Sus scrofa, UniProt P00761); experiment: porcine trypsin inhibitors, dose response, selectivity assay for Rce1 protease inhibitor project, biochemical, quenched peptide fluorescence, cherry-pick (AID 488789)
Trypsin, sequence (P00761 whole entry): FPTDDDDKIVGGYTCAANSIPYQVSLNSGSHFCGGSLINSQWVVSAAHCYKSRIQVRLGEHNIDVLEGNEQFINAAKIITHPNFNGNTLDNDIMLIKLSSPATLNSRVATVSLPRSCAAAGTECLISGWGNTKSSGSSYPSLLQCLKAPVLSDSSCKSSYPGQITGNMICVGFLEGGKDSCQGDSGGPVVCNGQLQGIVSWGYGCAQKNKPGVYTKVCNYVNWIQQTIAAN

T1 sequence (P41145 whole entry): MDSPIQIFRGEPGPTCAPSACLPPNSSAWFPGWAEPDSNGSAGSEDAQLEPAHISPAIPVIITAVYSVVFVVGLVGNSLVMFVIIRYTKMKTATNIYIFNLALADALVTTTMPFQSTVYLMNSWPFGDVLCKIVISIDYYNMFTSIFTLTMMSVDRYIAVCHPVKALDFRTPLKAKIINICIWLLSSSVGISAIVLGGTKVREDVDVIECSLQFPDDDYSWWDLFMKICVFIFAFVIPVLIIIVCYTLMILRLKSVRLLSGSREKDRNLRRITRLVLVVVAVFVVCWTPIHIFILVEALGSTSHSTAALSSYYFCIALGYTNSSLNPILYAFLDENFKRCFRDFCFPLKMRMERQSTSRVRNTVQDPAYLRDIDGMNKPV
Ephrin type-A receptor 4, sequence (Q03137 whole entry): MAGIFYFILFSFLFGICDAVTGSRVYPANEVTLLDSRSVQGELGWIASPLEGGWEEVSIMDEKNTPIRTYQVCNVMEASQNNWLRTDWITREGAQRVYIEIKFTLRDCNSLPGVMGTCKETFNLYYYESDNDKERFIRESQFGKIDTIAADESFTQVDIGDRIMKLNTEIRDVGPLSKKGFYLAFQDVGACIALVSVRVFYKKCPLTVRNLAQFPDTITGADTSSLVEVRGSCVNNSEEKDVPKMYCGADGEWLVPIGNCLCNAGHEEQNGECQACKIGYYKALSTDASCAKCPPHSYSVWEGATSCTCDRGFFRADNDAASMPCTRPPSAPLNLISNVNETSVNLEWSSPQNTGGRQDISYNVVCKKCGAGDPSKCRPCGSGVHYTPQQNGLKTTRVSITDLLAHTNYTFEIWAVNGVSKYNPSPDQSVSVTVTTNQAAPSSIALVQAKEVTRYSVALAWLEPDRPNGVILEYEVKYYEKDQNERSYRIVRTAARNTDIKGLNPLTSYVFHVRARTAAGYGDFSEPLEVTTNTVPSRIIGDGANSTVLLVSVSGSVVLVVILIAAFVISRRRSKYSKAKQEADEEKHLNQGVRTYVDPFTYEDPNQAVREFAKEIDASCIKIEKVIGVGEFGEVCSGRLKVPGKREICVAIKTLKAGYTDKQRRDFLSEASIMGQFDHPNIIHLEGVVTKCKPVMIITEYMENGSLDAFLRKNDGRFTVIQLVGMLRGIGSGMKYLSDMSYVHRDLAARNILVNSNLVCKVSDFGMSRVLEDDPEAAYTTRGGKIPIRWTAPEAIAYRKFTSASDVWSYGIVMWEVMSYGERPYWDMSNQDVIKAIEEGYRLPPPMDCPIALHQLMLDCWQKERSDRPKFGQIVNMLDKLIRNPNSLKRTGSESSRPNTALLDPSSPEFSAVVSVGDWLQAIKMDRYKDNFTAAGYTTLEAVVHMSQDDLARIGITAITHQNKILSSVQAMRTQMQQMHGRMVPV
Serine hydrolase RBBP9, sequence (O75884 whole entry): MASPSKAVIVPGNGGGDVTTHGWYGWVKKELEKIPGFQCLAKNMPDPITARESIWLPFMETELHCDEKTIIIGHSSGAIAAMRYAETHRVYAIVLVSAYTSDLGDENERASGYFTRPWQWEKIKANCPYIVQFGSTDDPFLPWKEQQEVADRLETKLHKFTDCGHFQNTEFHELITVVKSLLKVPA
X-box-binding protein 1, sequence (P17861 whole entry): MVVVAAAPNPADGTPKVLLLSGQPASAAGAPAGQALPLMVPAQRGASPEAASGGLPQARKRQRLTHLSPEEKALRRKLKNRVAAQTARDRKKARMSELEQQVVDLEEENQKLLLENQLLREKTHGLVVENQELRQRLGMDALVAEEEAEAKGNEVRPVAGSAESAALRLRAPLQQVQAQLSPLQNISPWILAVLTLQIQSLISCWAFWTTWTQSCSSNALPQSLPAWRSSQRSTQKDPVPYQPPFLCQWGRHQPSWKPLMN
Beta-galactosidase, sequence (Q8VNN2 whole entry): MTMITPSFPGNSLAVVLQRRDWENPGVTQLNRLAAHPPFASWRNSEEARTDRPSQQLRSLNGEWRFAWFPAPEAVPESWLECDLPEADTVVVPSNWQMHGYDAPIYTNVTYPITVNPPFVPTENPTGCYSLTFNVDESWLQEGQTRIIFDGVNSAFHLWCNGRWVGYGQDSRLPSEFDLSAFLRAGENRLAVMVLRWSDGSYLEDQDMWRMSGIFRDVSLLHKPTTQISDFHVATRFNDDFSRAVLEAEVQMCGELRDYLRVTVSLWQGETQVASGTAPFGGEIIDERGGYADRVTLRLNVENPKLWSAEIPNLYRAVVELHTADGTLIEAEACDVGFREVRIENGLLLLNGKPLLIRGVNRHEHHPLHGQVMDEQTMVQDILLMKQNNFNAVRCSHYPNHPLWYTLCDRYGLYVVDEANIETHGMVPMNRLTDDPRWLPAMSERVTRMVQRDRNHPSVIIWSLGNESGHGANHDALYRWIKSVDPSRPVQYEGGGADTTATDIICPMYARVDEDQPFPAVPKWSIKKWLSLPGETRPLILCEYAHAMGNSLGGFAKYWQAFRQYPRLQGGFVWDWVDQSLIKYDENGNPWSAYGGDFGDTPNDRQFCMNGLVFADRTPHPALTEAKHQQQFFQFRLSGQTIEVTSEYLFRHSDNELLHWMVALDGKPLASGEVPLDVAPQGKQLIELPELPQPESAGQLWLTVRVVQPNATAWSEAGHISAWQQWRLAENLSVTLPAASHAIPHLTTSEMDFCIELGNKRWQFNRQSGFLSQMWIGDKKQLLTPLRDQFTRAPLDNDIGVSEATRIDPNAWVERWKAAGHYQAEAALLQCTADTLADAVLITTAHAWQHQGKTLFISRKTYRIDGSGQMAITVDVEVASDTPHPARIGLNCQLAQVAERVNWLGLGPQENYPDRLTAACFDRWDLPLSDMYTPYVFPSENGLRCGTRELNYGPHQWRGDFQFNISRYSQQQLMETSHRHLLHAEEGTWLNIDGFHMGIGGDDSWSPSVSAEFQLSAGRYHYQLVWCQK
Luciferin 4-monooxygenase, sequence (P08659 whole entry): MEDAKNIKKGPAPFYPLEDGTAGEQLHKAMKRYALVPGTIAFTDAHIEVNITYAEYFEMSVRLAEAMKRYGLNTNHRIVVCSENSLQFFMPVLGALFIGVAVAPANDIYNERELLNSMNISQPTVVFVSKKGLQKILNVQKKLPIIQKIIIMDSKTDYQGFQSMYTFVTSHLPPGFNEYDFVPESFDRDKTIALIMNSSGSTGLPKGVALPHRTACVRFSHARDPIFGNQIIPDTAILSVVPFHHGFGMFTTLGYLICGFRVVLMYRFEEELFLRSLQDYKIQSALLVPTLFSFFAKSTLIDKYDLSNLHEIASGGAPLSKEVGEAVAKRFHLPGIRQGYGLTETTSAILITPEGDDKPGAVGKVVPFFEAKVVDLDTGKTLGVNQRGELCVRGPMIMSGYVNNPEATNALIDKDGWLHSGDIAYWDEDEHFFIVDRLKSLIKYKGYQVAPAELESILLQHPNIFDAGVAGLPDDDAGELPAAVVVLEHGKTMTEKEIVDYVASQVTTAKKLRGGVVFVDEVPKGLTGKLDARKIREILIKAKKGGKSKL

SMILES: C/C(=N\OC(=O)c1ccccc1)c1nccs1
- IC50 [1]: 5 µM (active)

SMILES: COc1ccc2ccccc2c1C(=O)/C=C/c1cccnc1
- EC50 [2]: 3.5 µM (active)
- EC50 [3]: 0.644 µM (active)
- EC50 [4]: > 8 µM (not active)
- EC50 [5]: 8.48 µM (inactive)

SMILES: Oc1c(N=Nc2ccccn2)ccc2ccccc12
- AC50 [6]: 0.375 µM (active)
- EC50 [7]: 2.8 µM (active)
- IC50 [8]: > 32 µM
- IC50 [9]: 13.8 µM (active)
- EC50 [10]: 2.67 µM (active)
- IC50 [11]: > 119 µM (inactive)
- EC50 [12]: 2.76 µM (inconclusive)
- IC50 [13]: > 119 µM (inactive)
- EC50 [14]: > 150 µM (not active)
- EC50 [15]: 3.59 µM (active)
- EC50 [16]: 14.5 µM (active)
- EC50 [17]: 25.1 µM (active)
- EC50 [18]: 9.75 µM (active)
- EC50 [19]: 9.82 µM (active)
- EC50 [20]: 2.84 µM (active)
- EC50 [21]: 6.46 µM (active)
- IC50 [22]: 2.32 µM (active)
- EC50 [23]: 7.46 µM (active)
- EC50 [24]: > 350 µM (not active)
- EC50 [25]: 2.99 µM (inconclusive)

SMILES: NC(N)=C1C(=O)N(C2CCCCC2)C(=O)N(C2CCCCC2)C1=O
- EC50 [26]: 24 µM (active)
- Absolute IC50 (XBP1) [27]: 10 µM
- EC50 [28]: 25.5 µM (active)

SMILES: O=C1c2cccc(OCC(=O)N3N=C(c4cccs4)CC3c3ccc(F)cc3)c2CCN1Cc1cccnc1 (stereo not given)
- AC50 [29]: 13.1 µM (active)
- AC50 [30]: 12.9 µM (active)
